The results in this text go back to US9174965B2, “Pyrimidinylpiperidinyloxypyridone analogues as GPR119 modulators” (BRISTOL-MYERS SQUIBB COMPANY, priority 2012, dated 2015).

Series [1] is described as follows: Aqueous solubility assay. The class given is physicochemical. To be noted: aqueous buffer, thermodynamic from solid; pH 6.5 phosphate buffer, room temperature, 18-24 h. The procedure: Approximately 0.75 mg of accurately weighed test compound was added to 1 mL of a pH 6.5 phosphate buffer (50 mM Potassium Phosphate Buffer) to make solutions with a nominal targeted concentration of 1 mM. The vial was then rotated on an orbital shaker at room temperature for 18-24 h. After equilibration time had been met, the test solution was centrifuge filtered through a 0.45 um membrane (Millipore Ultrafree Centrifugal Filters, Durapore PVDF 0.45 um). The filtrate was then analyzed by an Agilent HP1100 HPLC/UV at multiple wavelengths using diode array detection (e.g. 210, 230, 254 and 280 nm) against a previously generated calibration curve to determine compound concentration.
Find below in Table 9 data for compared compounds (See WO 2011/127106 A1).

Series [2] concerns male C57BL/6J mice. As to the kind of experiment: Mouse oral glucose tolerance test. The note with it: for Glucose Lowering: at the minimally efficacious dose, plasma glucose AUC in oGTT; for Minimally efficacious Dose: oGTT in C57BL/6J mice. Type of series: in vivo. The procedure: Mouse Oral Glucose Tolerance Test
Twenty four (24) male C57BL/6J mice (8-10 weeks old, average weight 28 g) were randomized into 4 groups (1 mouse/cage) of 6 mice per group based on fed plasma glucose and body weight. Prior to initiating the study, mice were fasted overnight and the next morning they were weighed and placed in the experimental lab. After 30 min in the environment, the mice were bled via tail tip at −60 min and immediately given their first oral administration of vehicle (40% PEG400, 10% Cremophor EL, 50% water) or compound solutions (5 ml/kg). At time 0 the mice were bled and given 50% glucose (2 g/kg) to initiate the oral glucose tolerance test (oGTT). The mice were bled 30, 60 and 120 min after the glucose load. Blood samples were drawn into potassium EDTA, placed on ice during the study and subsequently centrifuged for 10 min at 3000 rpm at 4° C. Plasma samples were diluted 11-fold for glucose analysis in the COBAS MIRA® System (Roche Diagnostics). Area under the curve was calculated from the plasma glucose time course data using the trapezoid rule with fasting plasma glucose as the baseline (GraphPad Prism Software). The statistical significance of the changes in the glucose AUCs resulting from the different treatments was determined by one-way ANOVA followed by Dunnett's test using the vehicle group as the control (JMP software, release 5.1.2).
Find below in Table 7 data for compared compounds (See WO 2009/012275 A1).

The nature of series [3]: in vitro. The note with it: human, microsomes, pH 7.4.
Procedure: (§1) Metabolic Stability in Liver Microsomes Test
(§2) The test compound was received as a 3.5 mM stock solution in 100 percent dimethyl sulfoxide (“DMSO”, Sigma Aldritch). The compound solution was diluted to create a 50 μM acetonitrile (“ACN”, Sigma Aldritch) solution containing 1.4% DMSO, which is then used as a 100-fold stock for incubation with microsomes. The test compound, β-nicotinamide adenine dinucleotide phosphate (“NADPH”, AppliChem Inc.) and liver microsome solutions are combined for incubation in three steps:
(§3) 1) 450 μl of liver microsome suspension, protein concentration of 1.1 mg/ml in 100 mM sodium (+)/phosphate (“NaPi”, pH 7.4, Sigma Aldritch) buffer, 5 mM magnesium chloride (“MgCl2, Sigma Aldritch) buffer, is pre-warmed at 37° C.;
(§4) 2) 5 μl of 50 μM test compound (98.6% ACN, 1.4% DMSO) is added to the same tube and pre-incubated at 37° C. for 5 minutes; and
(§5) 3) The reaction is initiated by the addition of 50 μl of pre-warmed 10 mM NADPH solution in 100 mM NaPi, pH 7.4.
(§6) Reaction components are mixed well and then 65 μl are immediately transferred into 130 μl quench/stop solution (zero-time point, T0). The reactions are incubated at 37° C. for 5, 10, 15, 30 and 45 minutes and at each time-point a 65 μl aliquot is transferred into 130 μl of quench solution. ACN containing Internal Standard (100 ng/ml), is used as the quench solution to terminate metabolic reactions. The quenched mixtures are centrifuged at 1500 rpm (˜500×g) in an Allegra X-12 centrifuge, SX4750 rotor (Beckman Coulter Inc., Fullerton, Calif.) for fifteen minutes to pellet denatured microsomes. A volume of 90 μl of supernatant extract, containing the mixture of parent compound and its metabolites, is then transferred to a separate 96-well plate for LC/MS-MS analysis to determine the percent of parent compound that is remaining in the mixture. Peak integration is performed on all samples using the Hepatic Clearance Calculator of QuickCalc by Gubbs, Inc. The percent remaining calculation is performed by comparing the LC-MS/MS peak areas from the samples at each time point to those from the T0 samples for each compound. T1/2 values are calculated from linear regression of the LN (% Remaining) over time, and the slope of that regression (Kel) is used to calculate T1/2, using the following equation: T1/2=−0.693/Kel.
Series [4] can be described thus: Metabolic stability in liver microsomes test. To be noted: human, pH 7.4. A general note: Liver microsomes are a subcellular fraction often used to study metabolism.
Procedure: as §1, §2, §3, §4, §5, §6

≈ marks a conversion by molar mass, not a printed value.

Turning to `CCCc1cnc(N2CCC(Oc3ccn(-c4ccc(N5CCC(O)C5=O)c(C)n4)c(=O)c3)CC2)nc1` (centres unmarked) [Example 5, 5′-(3-hydroxy-2-oxopyrrolidin-1-yl)-6′-methyl-4-((1-(5-propylpyrimidin-2-yl)piperidin-4-yl)oxy)-2H-[1,2′-bipyridin]-2-one], in series [1], the solubility (in general, how much of the substance goes into solution per volume) came to 3 µg/mL (≈ 5.95 µM). Moreover, in series [2], the “Glucose Lowering” value was −21% and the “Minimally efficacious Dose” value stood at 0.1 mg/kg. The half-life (as a rule, the time in which the quantity being followed falls by half) at 0.5 µM in series [3] was found to be 1.27 h.
In series [1], `Cc1nc(-n2ccc(OC3CCN(c4ncc(Cl)cn4)CC3)cc2=O)ccc1N1CCC(O)C1=O` (centres unmarked) [Example 6, 4-((1-(5-chloropyrimidin-2-yl)piperidin-4-yl)oxy)-5′-(3-hydroxy-2-oxopyrrolidin-1-yl)-6′-methyl-2H-[1,2′-bipyridin]-2-one] had a solubility of 7 µg/mL (≈ 14.1 µM). Also, the half-life at 0.5 µM in series [3] stood at 1.68 h.
For the compound `Cc1nc(-n2cc(Cl)c(OC3CCN(c4ncc(Cl)cn4)CC3)cc2=O)ccc1N1CCC(O)C1=O` (centres unmarked) [Example 1, 5-chloro-4-((1-(5-chloropyrimidin-2-yl)piperidin-4-yl)oxy)-5′-(3-hydroxy-2-oxopyrrolidin-1-yl)-6′-methyl-2H-[1,2′-bipyridin]-2-one], the solubility in series [1] came to 4 µg/mL (≈ 7.53 µM). In series [2], the “Glucose Lowering” value is −36% and the “Minimally efficacious Dose” value is on record as 0.03 mg/kg. Besides, the half-life at 0.5 µM in series [3] worked out at 1.57 h.
The compound `CCCc1cnc(N2CCC(Oc3cc(=O)n(-c4ccc(N5CCC(O)C5=O)c(C)n4)cc3Cl)CC2)nc1` (centres unmarked) [Example 2, 5-chloro-5′-(3-hydroxy-2-oxopyrrolidin-1-yl)-6′-methyl-4-((1-(5-propylpyrimidin-2-yl)piperidin-4-yl)oxy)-2H-[1,2′-bipyridin]-2-one] registered a solubility in series [1] of 1 µg/mL (≈ 1.86 µM). In series [2], the “Glucose Lowering” value is given as −19% and the “Minimally efficacious Dose” value is on record as 0.03 mg/kg. This compound also yielded a half-life at 0.5 µM in series [4] of 2 h.
